The source made the active and inactive calls. No cut-off for these calls is given here.

The text below walks through data of ChEMBL document CHEMBL4311997, “Discovery of a potent histone deacetylase (HDAC) 3/6 selective dual inhibitor” (Eur J Med Chem, 2019).

For experiment [1], the system named is MDA-MB-231. Description: Antiproliferative activity against human MDA-MB-231 cells incubated for 72 hrs by MTT assay. Conditions: MDA-MB-231, 72 h. Format: functional, cell-based. A general note: Formazan colour is commonly taken as a measure of viable cells.
For another experiment, the system named is KMS-12-BM. Put plainly: Effect on human KMS-12-BM cells assessed as inhibition in H3K9Me2 level at 2 to 10 uM incubated for 24 hrs by Western blot analysis. The class given is functional, cell-based. (A western blot detects proteins with antibodies after separation by electrophoresis.)
Experiment [2] concerns the target Histone deacetylase 1/2/3 (Homo sapiens, UniProt Q13547+O15379+Q92769). Description: Inhibition of HDAC1/2/3 in human KMS-12-BM cells assessed as increase in Ac-H3 level at 2 to 10 uM incubated for 24 hrs by Western blot analysis. The class given is cell-based.
Experiment [3] deals with Plasmodium falciparum. Put plainly: microbe, parasite or virus in culture. Format: functional, organism-based. The note with it: 3D7, 48 h.
Description: Antimalarial activity against ring stage Plasmodium falciparum 3D7 incubated for 48 hrs by Hoechst 33342 staining based fluorescence based assay
The test system of a further experiment is MCF7. Description: Antiproliferative activity against human MCF7 cells incubated for 72 hrs by MTT assay. Format: functional, cell-based. Conditions: MCF7, 72 h.
Another experiment has as its target Histone deacetylase 1 (Homo sapiens, UniProt Q13547).
The target of experiment [4] is T1, Protein deacetylase HDAC6 (Homo sapiens, UniProt Q9UBN7).
T1 sequence (Q9UBN7 whole entry): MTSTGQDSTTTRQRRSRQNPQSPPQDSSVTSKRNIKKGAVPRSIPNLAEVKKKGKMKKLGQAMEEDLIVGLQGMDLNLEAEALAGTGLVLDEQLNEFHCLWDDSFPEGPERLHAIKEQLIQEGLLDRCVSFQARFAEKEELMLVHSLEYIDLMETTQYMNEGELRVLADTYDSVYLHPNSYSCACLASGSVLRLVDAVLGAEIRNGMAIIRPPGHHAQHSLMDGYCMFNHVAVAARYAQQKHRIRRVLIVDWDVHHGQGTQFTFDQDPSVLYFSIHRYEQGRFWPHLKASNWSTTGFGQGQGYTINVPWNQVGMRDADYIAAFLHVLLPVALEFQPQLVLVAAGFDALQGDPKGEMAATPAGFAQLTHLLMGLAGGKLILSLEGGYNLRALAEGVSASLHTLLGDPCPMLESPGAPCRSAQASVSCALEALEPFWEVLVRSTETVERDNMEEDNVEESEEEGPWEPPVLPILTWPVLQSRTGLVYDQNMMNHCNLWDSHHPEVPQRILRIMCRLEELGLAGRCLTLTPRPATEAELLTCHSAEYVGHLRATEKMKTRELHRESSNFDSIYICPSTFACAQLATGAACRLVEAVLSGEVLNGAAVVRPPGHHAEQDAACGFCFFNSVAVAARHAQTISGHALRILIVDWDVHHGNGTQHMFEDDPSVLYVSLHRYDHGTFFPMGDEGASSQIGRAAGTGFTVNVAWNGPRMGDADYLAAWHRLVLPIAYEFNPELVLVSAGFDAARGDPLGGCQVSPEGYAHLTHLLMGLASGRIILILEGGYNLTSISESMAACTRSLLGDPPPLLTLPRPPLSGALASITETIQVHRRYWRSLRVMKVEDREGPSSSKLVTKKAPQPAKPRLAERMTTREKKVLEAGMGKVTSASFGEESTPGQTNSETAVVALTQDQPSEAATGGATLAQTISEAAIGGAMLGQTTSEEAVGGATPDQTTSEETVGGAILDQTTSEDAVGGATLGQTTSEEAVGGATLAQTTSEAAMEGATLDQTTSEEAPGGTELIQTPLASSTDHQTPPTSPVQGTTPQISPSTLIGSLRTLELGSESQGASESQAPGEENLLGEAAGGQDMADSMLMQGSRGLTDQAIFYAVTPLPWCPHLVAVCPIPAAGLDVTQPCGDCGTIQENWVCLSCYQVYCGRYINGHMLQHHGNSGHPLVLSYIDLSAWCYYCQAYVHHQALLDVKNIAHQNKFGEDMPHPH
Description: Inhibition of human HDAC6 using Arg-His-Lys-Lys (Ac) as substrate incubated for 2 hrs by fluorescence assay.

Experiment [5] in a line: Selectivity index, ratio of EC50 for human MDA-MB-231 cells to IC50 for ring stage Plasmodium falciparum 3D7. The class given is functional. The arrangement: reference not given here.
A short description of experiment [6]: Selectivity index, ratio of EC50 for human MDA-MB-231 cells to IC50 for ring stage Plasmodium falciparum K1. The class given is functional. The arrangement: reference not given here.
Experiment [7] has as its system Plasmodium falciparum. Put plainly: microbe, parasite or virus in culture. The class given is functional, organism-based. Conditions: K1, 48 h.
Description: Antimalarial activity against ring stage Plasmodium falciparum K1 incubated for 48 hrs by Hoechst 33342 staining based fluorescence based assay
Experiment [8] addresses Protein deacetylase HDAC6 (Homo sapiens) (UniProt Q9UBN7). Description: Potency index, ratio of IC50 for vorinostat to IC50 for test compound for human HDAC6.
The test system of experiment [9] is MDA-MB-231. Put plainly: Induction of apoptosis in human MDA-MB-231 cells assessed as late apoptotic cells at 1 uM incubated for 48 hrs by Annexin V-FITC/PI staining by flow cytometric analysis (reference value: 3%). The class given is functional. Background: In flow cytometry, cells or beads pass a laser one at a time.
Experiment [10] concerns MDA-MB-231. Put plainly: Induction of apoptosis in human MDA-MB-231 cells assessed as viable cells at 1 uM incubated for 48 hrs by Annexin V-FITC/PI staining by flow cytometric analysis (reference value: 77%). The class given is functional. The note with it: MDA-MB-231, 48 h, read-out: Activity.
The subject of experiment [11] is MDA-MB-231. Put plainly: Induction of apoptosis in human MDA-MB-231 cells assessed as early apoptotic cells at 1 uM incubated for 48 hrs by Annexin V-FITC/PI staining by flow cytometric analysis (reference value: 5%). The class given is functional.
Experiment [12] has as its system MDA-MB-231. Put plainly: Induction of apoptosis in human MDA-MB-231 cells assessed as necrotic cells at 1 uM incubated for 48 hrs by Annexin V-FITC/PI staining by flow cytometric analysis (reference value: 15%). Format: functional.
A further experiment relates to OPM-2. Put plainly: Antiproliferative activity against human OPM2 cells incubated for 48 hrs by CellTiter-Glo luminescent cell viability assay. The class given is functional, cell-based. Conditions: OPM-2, 48 h.

Chain of Histone deacetylase 1 (Q13547 whole entry): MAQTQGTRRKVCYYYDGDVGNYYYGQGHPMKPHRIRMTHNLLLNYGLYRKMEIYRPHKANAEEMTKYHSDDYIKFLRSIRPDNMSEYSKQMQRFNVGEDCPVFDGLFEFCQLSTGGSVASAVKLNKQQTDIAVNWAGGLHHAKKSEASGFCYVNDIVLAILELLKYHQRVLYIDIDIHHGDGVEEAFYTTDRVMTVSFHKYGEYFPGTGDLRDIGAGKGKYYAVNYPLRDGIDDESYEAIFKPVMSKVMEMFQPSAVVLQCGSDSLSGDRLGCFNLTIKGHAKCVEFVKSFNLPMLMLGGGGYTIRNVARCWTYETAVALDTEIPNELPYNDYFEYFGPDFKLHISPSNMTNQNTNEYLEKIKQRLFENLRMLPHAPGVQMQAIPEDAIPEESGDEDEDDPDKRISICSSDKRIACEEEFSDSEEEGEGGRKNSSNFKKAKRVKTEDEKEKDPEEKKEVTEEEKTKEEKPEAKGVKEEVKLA

The EC50 is the concentration giving half of the maximal effect. In general, IC50 refers to the concentration needed to halve the response being measured. Regarding `COc1cc2nc(N3CCCN(C)CC3)nc(NC3CCN(Cc4ccccc4)CC3)c2cc1OC`, the EC50 amounted to 2.9 µM with MDA-MB-231 [1] and 3.3 µM in the experiment on MCF7. In addition, the outcome in the experiment with KMS-12-BM was Active. Further, in [2], the inhibition entry is “inactive”. For the same compound, the 50% inhibitory concentration (IC50) in the experiment with Plasmodium falciparum [3] is 0.152 µM.
Take `COc1cc2nc(Nc3ccc(NC(=O)CCCCCCC(=O)NO)cc3)nc(NC3CCN(Cc4ccccc4Cl)CC3)c2cc1OC`: the EC50 in the experiment with MDA-MB-231 [1] was found to be 4.1 µM; in the experiment on MCF7, 4.9 µM. For the same compound, the IC50 at Histone deacetylase 1 was 3.37 µM; in experiment [4], 0.00909 µM; in the experiment on Plasmodium falciparum [7], 0.489 µM; in the experiment on Plasmodium falciparum [3], 0.096 µM. The “Selectivity Index” value was 43 in experiment [5] and 8 in experiment [6].
Take `COc1cc2nc(Nc3ccc(NC(=O)CCCCCCC(=O)NO)cc3)nc(NC3CCN(Cc4ccccc4)CC3)c2cc1OC`: the 50% effective concentration (EC50) in the experiment with MDA-MB-231 [1] came to 5.1 µM; in the experiment on MCF7, 12 µM. The IC50 at Histone deacetylase 1 is 1.03 µM; in experiment [4] it was < 0.0005 µM; in the experiment with Plasmodium falciparum [7], 0.878 µM; in the experiment with Plasmodium falciparum [3] it was 0.2 µM. Besides, the figures for the “Selectivity Index” value in [5] and in experiment [6] were 26 and 6, respectively. The Ratio IC50 in experiment [8] is 40.
In the case of `COc1cc2nc(N3CCN(C(=O)CCCCCCC(=O)NO)CC3)nc(NC3CCN(Cc4ccccc4)CC3)c2cc1OC`, the EC50 with MDA-MB-231 [1] was 7 µM; in the experiment with MCF7 it was 7.7 µM. In addition, the IC50 against Histone deacetylase 1 worked out at 3.08 µM; in experiment [4], 0.0355 µM.
As for `COc1cccc2c1C(=O)c1c(O)c3c(c(O)c1C2=O)C[C@@](O)(C(=O)CO)C[C@@H]3O[C@H]1C[C@H](N)[C@H](O)[C@H](C)O1` [DOXORUBICIN], the Activity with MDA-MB-231 [9] came to 92%; in the experiment on MDA-MB-231 [11], 1%; with MDA-MB-231 [12], 6%. Besides, the viability at 1 µM in the experiment on MDA-MB-231 [10] came out at 1%.
`O=C(CCCCCCC(=O)Nc1ccccc1)NO` [VORINOSTAT] yielded an EC50 in the experiment on OPM-2 of 2.9 µM.
`O=C(CCCCCCC(=O)Nc1ccc(Nc2nc(NC3CCN(Cc4ccccc4)CC3)c3sccc3n2)cc1)NO`: the EC50 in the experiment with MDA-MB-231 [1] and in the experiment with MCF7 was 2.9 µM each time. The half-maximal inhibitory concentration (IC50) at Histone deacetylase 1 amounted to 0.233 µM; in experiment [4], 0.0059 µM.
For `COc1cc2nc(Nc3ccc(NC(=O)CCCCCCC(=O)NO)cc3)nc(NC3CCN(Cc4ccc(F)cc4)CC3)c2cc1OC`, the EC50 in the experiment with MDA-MB-231 [1] and with MCF7 was 4.9 µM throughout. In addition, the IC50 against Histone deacetylase 1 amounted to 2.15 µM; in experiment [4], 0.00798 µM; in the experiment on Plasmodium falciparum [7], 0.296 µM; with Plasmodium falciparum [3] it was 0.111 µM. The “Selectivity Index” value was 44 in experiment [5] and 17 in experiment [6].
